# According to patent US9232796B2, “Herbicidal compositions comprising 4-amino-3-chloro-5-fluoro-6-(4-chloro-2-fluoro-3-methoxyphenyl) pyridine-2-carboxylic acid or a derivative thereof and acetyl-CoA carboxylase (ACCase) inhibitors” (DOW AGROSCIENCES LLC, priority 2012, dated 2016):
# Assays:
# [1] = system: ECHCG; assay: Example V (second) postemergence foliar-applied ternary mixtures, greenhouse, direct seeded rice weeds; type: in vivo, Echinochloa crus-galli (L.) Beauv.
# Text: (§1) Seeds or nutlets of the desired test plant species were planted in a soil matrix prepared by mixing a sandy loam or loam soil (e.g., 32 percent silt, 23 percent clay, and 45 percent sand, with a pH of about 6.5 and an organic matter content of about 1.9 percent) and calcareous grit in an 80 to 20 ratio. The soil matrix was contained in plastic pots with a volume of 1 quart and a surface area of 83.6 square centimeters (cm^2). When required to ensure good germination and healthy plants, a fungicide treatment and/or other chemical or physical treatment was applied. The plants were grown for 8-22 days in a greenhouse with an approximate 14 hr. photoperiod which was maintained at about 29° C. during the day and 26° C. during the night. Nutrients (Peters Excel® 15-5-15 5-Ca 2-Mg and iron chelate) were applied in the irrigation solution as needed and water was added on a regular basis. Supplemental lighting was provided with overhead metal halide 1000-Watt lamps as necessary. The plants were employed for testing when they reached the first through fourth true leaf stage.
# (§2) Treatments consisted of the benzyl ester of 4-amino-3-chloro-5-fluoro-6-(4-chloro-2-fluoro-3-methoxy-phenyl)pyridine-2-carboxylic acid (Compound A), formulated as an SC (suspension concentrate), an ACCase inhibitor, and a third herbicidal component, each applied alone and in ternary combination. Forms of compound A were applied on an acid equivalent basis.
# The ACCase inhibitor component was applied on an active ingredient basis and included cyhalofop-R-butyl formulated as Clincher® SF, fenoxaprop-p-ethyl formulated as RiceStar® HT, and profoxydim formulated as Aura® 20EC. Other herbicidal components were applied on an active ingredient or acid equivalent basis depending on the compound and included penoxsulam formulated as Grasp® SC, bentazon sodium formulated as Basagran®, triclopyr […] (TEA) salt formulated as Grandstand® R, bispyribac sodium formulated as Regiment® 80WP, imazamox ammonium formulated as Beyond®, benzobicyclon, quinclorac formulated as Facet® 75DF, glyphosate dimethylammonium (DMA) salt formulated as Durango® DMA, glufosinate ammonium formulated as Ignite® 280, fentrazamide formulated as an emulsifiable concentrate (EC), propyrisulfuron formulated as Zeta One®, and indanofan (technical grade material).
# (§3) Treatment requirements were calculated based upon the rates being tested, the concentration of active ingredient or acid equivalent in the formulation, and a 12 mL application volume at a rate of 187 L/ha.
# (§4) For treatments comprised of formulated compounds, measured amounts of compounds were placed individually in 25 mL glass vials and diluted in a volume of 1.25% (v/v) Agri-Dex® crop oil concentrate to obtain 12× stock solutions. […] Application solutions were prepared by adding an appropriate amount of each stock solution (e.g., 1 mL) and diluted to the appropriate final concentrations with the addition of 9 mL of an aqueous mixture of 1.25% (v/v) crop oil concentrate so that the final spray solutions contained 1.25% (v/v) crop oil concentrate.
# (§5) As required, additional water and/or 97:3 v/v acetone/DMSO was added to individual application solutions so that the final acetone and DMSO concentrations of the application solutions being compared were 8.1% and 0.25%, respectively.
# (§6) All stock solutions and applications solutions were visually inspected for compound compatibility prior to application. Spray solutions were applied to the plant material with an overhead Mandel track sprayer equipped with a 8002E nozzles calibrated to deliver 187 L/ha over an application area of 0.503 m^2 at a spray height of 18 inches (46 cm) above average plant canopy height. Control plants were sprayed in the same manner with the solvent blank.
# The treated plants and control plants were placed in a greenhouse as described above and watered by sub-irrigation to prevent wash-off of the test compounds. […]
# [2] = system: ECHOR; assay: as above; type: in vivo, Echinochloa oryzoides (Ard.) Fritsch
# Experimental: as §1, with “When required to ensure good germination and healthy plants, a fungicide treatment and/or other chemical or physical treatment was applied.” left out
# as §2, §4, §5, §6
# The treated plants and control plants were placed in a greenhouse as described above and watered by sub-irrigation to prevent wash-off of the test compounds. After approximately 3 weeks, the condition of the test plants as compared with that of the untreated plants was determined visually and scored on a scale of 0 to 100 percent where 0 corresponds to no injury or growth inhibition and 100 corresponds to complete kill.
# (§7) Colby's equation was used to determine the herbicidal effects expected from the mixtures (Colby, S. R. 1967. Calculation of the synergistic and antagonistic response of herbicide combinations. Weeds 15:20-22.).
# The following equation was used to calculate the expected activity of mixtures containing three active ingredients, A, B, and C: Expected=A+B+C−((A×B+A×C+B×C)/100)+(A×B×C/10000)
# [3] = system: ECHOR; assay: Example II in-water applied, greenhouse, transplanted paddy rice weeds; type: in vivo, Echinochloa oryzoides (Ard.) Fritsch; settings: in-water
# Experimental: (§8) Weed seeds or nutlets of the desired test plant species were planted in puddled soil (mud) prepared by mixing a shredded, non-sterilized mineral soil (50.5 percent silt, 25.5 percent clay, and 24 percent sand, with a pH of about 7.6 and an organic matter content of about 2.9 percent) and water at a 1:1 volumetric ratio. The prepared mud was dispensed in 365 mL aliquots into 16-ounce (oz.) non-perforated plastic pots with a surface area of 86.59 square centimeters (cm^2) leaving a headspace of 3 centimeters (cm) in each pot. Mud was allowed to dry overnight prior to planting or transplanting. Rice seeds were planted in Sun Gro MetroMix® 306 planting mixture, which typically has a pH of 6.0 to 6.8 and an organic matter content of about 30 percent, in plastic plug trays. Seedlings at the second or third leaf stage of growth were transplanted into 860 mL of mud contained in 32-oz. non-perforated plastic pots with a surface area of 86.59 cm^2 4 days prior to herbicide application. The paddy was created by filling the headspace of the pots with 2.5 to 3 cm of water. […] The plants were grown for 4-22 days in a greenhouse with an approximate 14 hr. photoperiod which was maintained at about 29° C. during the day and 26° C. during the night. Nutrients were added as Osmocote® (19:6:12, N:P:K+minor nutrients) at 2 g per 16-oz. pot and 4 g per 32-oz. pot. Water was added on a regular basis to maintain the paddy flood, and supplemental lighting was provided with overhead metal halide 1000-Watt lamps as necessary. The plants were employed for testing when they reached the first through fourth true leaf stage.
# (§9) Treatments consisted of the acid or esters of 4-amino-3-chloro-5-fluoro-6-(4-chloro-2-fluoro-3-methoxy-phenyl)pyridine-2-carboxylic acid (compound A) each formulated as an SC (suspension concentrate) and various herbicidal components alone and in combination.
# (§10) For formulated compounds, a measured amount was placed in an individual 100 or 200 mL glass vial and was dissolved in a volume of 1.25% (v/v) Agri-Dex® crop oil concentrate to obtain application solutions.
# (§11) Applications were made by injecting with a pipetter appropriate amounts of the application solutions, individually and sequentially, into the aqueous layer of the paddy. Control plants were treated in the same manner with the solvent blank. Applications were made so that all treated plant material received the same concentrations of acetone and crop oil concentrate.
# (§12) The treated plants and control plants were placed in a greenhouse as described above and water was added as needed to maintain a paddy flood. After approximately 3 weeks the condition of the test plants as compared with that of the untreated plants was determined visually and scored on a scale of 0 to 100 percent where 0 corresponds to no injury or growth inhibition and 100 corresponds to complete kill.
# as §7
# (§13) The following equation was used to calculate the expected activity of mixtures containing two active ingredients, A and B: Expected=A+B−(A×B/100)
# [4] = system: CYPRO; assay: as above; type: in vivo, Cyperus rotundus L.
# Experimental: as §8, §9, §10, §11, §12, §7, §13
# [5] = system: IPOHE; assay: Example I postemergence foliar-applied, greenhouse, direct seeded rice weeds; type: in vivo, Ipomoea hederacea Jacq.
# Text: Seeds or nutlets of the desired test plant species were planted in a soil matrix prepared by mixing a loam or sandy loam soil (e.g., 28.6 percent silt, 18.8 percent clay, and 52.6 percent sand, with a pH of about 5.8 and an organic matter content of about 1.8 percent) and calcareous grit in an 80 to 20 ratio. The soil matrix was contained in plastic pots with a volume of 1 quart and a surface area of 83.6 square centimeters (cm^2). When required to ensure good germination and healthy plants, a fungicide treatment and/or other chemical or physical treatment was applied. The plants were grown for 8-22 days in a greenhouse with an approximate 14 hr. photoperiod which was maintained at about 29° C. during the day and 26° C. during the night. Nutrients (Peters Excel® 15-5-15 5-Ca 2-Mg and iron chelate) were applied in the irrigation solution as needed and water was added on a regular basis. Supplemental lighting was provided with overhead metal halide 1000-Watt lamps as necessary. The plants were employed for testing when they reached the first through fourth true leaf stage.
# Treatments consisted of the acid or esters of 4-amino-3-chloro-5-fluoro-6-(4-chloro-2-fluoro-3-methoxy-phenyl)pyridine-2-carboxylic acid (Compound A), each formulated as an SC (suspension concentrate), and various herbicidal components alone and in combination.
# Other herbicidal components were applied on an acid equivalent (ae) or active ingredient (ai) basis and included acetyl coA carboxylase (ACCase)-inhibiting herbicides (cyclohexanedione and aryloxyphenoxypropionate chemical classes) cyhalofop-butyl formulated as Clincher® SF (285 gr ai/L EC), diclofop-methyl formulated as Hoelon® 3EC, fenoxaprop-p-ethyl+isoxadifen-ethyl formulated as RiceStar® HT (0.58 lb./gal EC), fenoxaprop-p-ethyl+mefenpyr diethyl formulated as Puma® IEC, metamifop formulated as Metamifop EC, haloxyfop-methyl formulated as Gallant Super®, fluazifop-p-butyl formulated as Fusilade® DX, quizalofop-p-ethyl formulated as Assure® II, profoxydim formulated as Aura® 20EC, clethodim applied as Intensity®, sethoxydim formulated as Poast®, and tralkoxydim formulated as Achieve®.
# as §3
# For treatments comprised of formulated compounds, measured amounts of compounds were placed individually in 25 mL glass vials and diluted in a volume of 1.25% (v/v) Agri-Dex® crop oil concentrated to obtain 12× stock solutions. […] Application solutions were prepared by adding an appropriate amount of each stock solution (e.g., 1 mL) and diluted to the appropriate final concentrations with the addition of 10 mL of an aqueous mixture of 1.25% (v/v) crop oil concentrate so that the final spray solutions contained 1.25+/−0.05% (v/v) crop oil concentrate.
# All stock solutions and applications solutions were visually inspected for compound compatibility prior to application. Spray solutions were applied to the plant material with an overhead Mandel track sprayer equipped with a 8002E nozzles calibrated to deliver 187 L/ha over an application area of 0.503 m^2 at a spray height of 18 to 20 inches (46 to 50 cm) above average plant canopy height. Control plants were sprayed in the same manner with the solvent blank.
# The treated plants and control plants were placed in a greenhouse as described above and watered by sub-irrigation to prevent wash-off of the test compounds. After approximately 3 weeks, the condition of the test plants as compared with that of the untreated plants was determined visually and scored on a scale of 0 to 100 percent where 0 corresponds to no injury or growth inhibition and 100 corresponds to complete kill. […]
smiles,measurement,setting,value
CCN(C(=O)n1nnn(-c2ccccc2Cl)c1=O)C1CCCCC1 [Fentrazamide],Visual Weed Control (%) - 22 DAA ECHCG Obs,[1]; 33.75 gai/ha,0%
same,Visual Weed Control (%) - 22 DAA ECHCG Obs,[1]; 67.5 gai/ha,0%
same,Visual Weed Control (%)- 22 DAA ECHOR Obs,[2]; 33.75 gai/ha,3%
same,Visual Weed Control (%)- 22 DAA ECHOR Obs,[2]; 67.5 gai/ha,0%
"CCCCOC(=O)[C@@H](C)Oc1ccc(Oc2ccc(C(F)(F)F)cn2)cc1 [Fluazifop-p-butyl, butyl(2R)-2-[4-[[5-(trifluoromethyl)-2-pyridinyl]oxy]phenoxy]propanoate, reference compound]",Visual Weed Control (%) - 21 DAA ECHOR Obs,[3]; 45 gai/ha,0%
same,Visual Weed Control (%) - 21 DAA ECHOR Obs,[3]; Fluazifop-P-butyl 90 gae/ha,25%
same,Visual Weed Control (%) - 21 DAA CYPRO Obs,[4]; Fluazifop-P-butyl 90 gae/ha,0%
same,Visual Weed Control (%) - 21 DAA CYPRO Obs,[4]; Fluazifop-P-butyl 180 gae/ha,0%
same,Visual Weed Control (%) - 19 DAA IPOHE Obs,[5]; 45 gae/ha,0%
same,Visual Weed Control (%) - 19 DAA IPOHE Obs,[5]; 90 gae/ha,0%
same,Visual Weed Control (%) - 19 DAA IPOHE Obs,[5]; 180 gae/ha,0%
CCCc1ccc2nc(Cl)c(S(=O)(=O)NC(=O)Nc3nc(OC)cc(OC)n3)n2n1 [Propyrisulfuron],Visual Weed Control (%) - 22 DAA ECHOR Obs,[2]; 22.5 gai/ha,55%
